Measurements reported in patent publication US11459323B2, “Monocyclic β-lactam compound for treating bacterial infection” (MEDSHINE DISCOVERY INC., priority 2018, dated 2022).
Values after ≈ are worked out from the molar mass of the structure shown. Like-named read-outs stand apart in the source and are kept apart here.

Legend:
[1] = test system: K. pneumoniae ATCC BAA-205 (TEM-1/SHV-1/SHV-12); assay: MIC by micro-liquid dilution method (CLSI); format: cell-based, Klebsiella pneumonia; settings: Klebsiella pneumoniae, ATCCBAA205; K. pneumoniae ATCCBAA-205; read-out: MIC
[2] = test system: K. pneumoniae ATCC BAA-1705 (KPC-2); assay: MIC by micro-liquid dilution method (CLSI); format: cell-based, Klebsiella pneumonia; settings: Klebsiella pneumoniae, ATCCBAA1705; K. pneumoniae ATCCBAA-1705; read-out: MIC
[3] = test system: K. pneumoniae ATCC BAA-2470 (NDM-1); assay: MIC by micro-liquid dilution method (CLSI); format: cell-based, Klebsiella pneumonia; settings: Klebsiella pneumoniae, ATCCBAA2470; K. pneumoniae ATCCBAA-2470; read-out: MIC
[4] = test system: E. coli ATCC BAA-2523 (OXA-48); assay: MIC by micro-liquid dilution method (CLSI); format: cell-based; settings: Escherichia coli, ATCCBAA2523
Source text: (§1) Three strains of Klebsiella pneumonia, K. pneumoniae ATCC BAA-205 (TEM-1/SHV-1/SHV-12), K. pneumoniae ATCC BAA-1705 (KPC-2), K. pneumoniae ATCC BAA-2470 (NDM-1); three strains of Pseudomonas aeruginosa, P. aeruginosa NCTC13437 (VIM-10; VEB-1), P. aeruginosa PA 14 and P. aeruginosa ATCC 35151; four strains of Escherichia coli, E. coli NCTC 13476 (IMP-1 type), E. coli ATCC BAA-2523 (OXA-48), E. coli MG1655Δtol C, E. coli ATCC 25922; one strain of Acinetobacter baumannii, A. baumannii ATCC 17978 and one strain of Staphylococcus aureus, S. aureus NRS384 were used to determine the minimum inhibitory concentration (MIC) of the compounds by micro-liquid dilution method according to the Institute of Clinical and Laboratory Standard (CLSI) requirements.

E. coli MG1655Δtol C = assay: MIC by micro-liquid dilution method (CLSI); format: cell-based; settings: Escherichia coli
Source text: as §1

P. aeruginosa PA 14 = assay: MIC by micro-liquid dilution method (CLSI); format: cell-based; settings: Pseudomonas aeruginosa, PA14; P. aeruginosa PA 14; read-out: MIC
Source text: as §1

P. aeruginosa ATCC 35151 = assay: MIC by micro-liquid dilution method (CLSI); format: cell-based; settings: Pseudomonas aeruginosa
A. baumannii ATCC 17978 = assay: MIC by micro-liquid dilution method (CLSI); format: cell-based; settings: Acinetobacter baumannii; A. baumannii ATCC17978; read-out: MIC
E. coli ATCC 25922 = assay: MIC by micro-liquid dilution method (CLSI); format: cell-based; settings: Escherichia coli
[5] = test system: Acinetobacter baumannii ATCC 17978; assay: MIC on Acinetobacter baumannii strains; format: cell-based; settings: ATCC17978
Source text: (§2) Twelve strains of Acinetobacter baumannii, A. baumannii ATCC 17978 (ATCC-BAA-1605, ATCC-BAA-1789, ATCC-BAA-1790, ATCC-BAA-1791, ATCC-BAA-1792, ATCC-BAA-1793, ATCC-BAA-1794, ATCC-BAA-1795, ATCC-BAA-1799, ATCC-BAA-1800, ATCC 19606, ATCC 17978) were used to determine the minimum inhibitory concentration (MIC) of the compounds by micro-liquid dilution method according to the Institute of Clinical and Laboratory Standard (CLSI) requirements.

[6] = test system: Acinetobacter baumannii ATCC 19606; assay: MIC on Acinetobacter baumannii strains; format: cell-based; settings: ATCC19606
Source text: as §2

[7] = test system: Acinetobacter baumannii ATCC-BAA-1605; assay: MIC on Acinetobacter baumannii strains; format: cell-based; settings: ATCCBAA1605, ATCC-BAA-1605, read-out: MIC
Source text: as §2

[8] = test system: Acinetobacter baumannii ATCC-BAA-1789; assay: MIC on Acinetobacter baumannii strains; format: cell-based; settings: ATCCBAA1789
Source text: as §2

[9] = test system: Acinetobacter baumannii ATCC-BAA-1790; assay: MIC on Acinetobacter baumannii strains; format: cell-based; settings: ATCCBAA1790, ATCC-BAA-1790, read-out: MIC
Source text: as §2

[10] = test system: Acinetobacter baumannii ATCC-BAA-1791; assay: MIC on Acinetobacter baumannii strains; format: cell-based; settings: ATCCBAA1791
Source text: as §2

[11] = test system: Acinetobacter baumannii ATCC-BAA-1792; assay: MIC on Acinetobacter baumannii strains; format: cell-based; settings: ATCCBAA1792, ATCC-BAA-1792, read-out: MIC
Source text: as §2

[12] = test system: Acinetobacter baumannii ATCC-BAA-1793; assay: MIC on Acinetobacter baumannii strains; format: cell-based; settings: ATCCBAA1793, ATCC-BAA-1793, read-out: MIC
Source text: as §2

[13] = test system: Acinetobacter baumannii ATCC-BAA-1794; assay: MIC on Acinetobacter baumannii strains; format: cell-based; settings: ATCCBAA1794, ATCC-BAA-1794, read-out: MIC
Source text: as §2

[14] = test system: Acinetobacter baumannii ATCC-BAA-1795; assay: MIC on Acinetobacter baumannii strains; format: cell-based; settings: ATCCBAA1795
Source text: as §2

[15] = test system: Acinetobacter baumannii ATCC-BAA-1799; assay: MIC on Acinetobacter baumannii strains; format: cell-based; settings: ATCCBAA1799, ATCC-BAA-1799, read-out: MIC
Source text: as §2

[16] = test system: Acinetobacter baumannii ATCC-BAA-1800; assay: MIC on Acinetobacter baumannii strains; format: cell-based; settings: ATCCBAA1800, ATCC-BAA-1800, read-out: MIC
Source text: as §2

[17] = test system: E. coli NCTC 13476 (IMP-1 type); assay: MIC by micro-liquid dilution method (CLSI); format: cell-based; settings: Escherichia coli; E. coli NCTC13476; read-out: MIC
Source text: as §1

Compound | MIC [1] | MIC [2] | MIC [3] | MIC (E. coli MG1655Δtol C) | MIC (P. aeruginosa PA 14) | MIC (A. baumannii ATCC 17978) | MIC [5] | MIC [6] | MIC [7] | MIC [8] | MIC [9] | MIC [10] | MIC [11] | MIC [12] | MIC [13] | MIC [14] | MIC [15] | MIC [16] | further results
CC1(C)[C@H](NC(=O)/C(=N\OCCOc2ccc3c(c2)CCN(C(=N)N)C3)c2csc(N)n2)C(=O)N1OS(=O)(=O)O [Compound 3] | 8 µg/mL (≈ 13.4 µM) | 4 µg/mL (≈ 6.7 µM) | 2 µg/mL (≈ 3.35 µM) | ≤ 0.0039 µg/mL | 4 µg/mL (≈ 6.7 µM) | 2 µg/mL (≈ 3.35 µM) | 4 µg/mL (≈ 6.7 µM) | 8 µg/mL (≈ 13.4 µM) | 16 µg/mL (≈ 26.8 µM) | 16 µg/mL (≈ 26.8 µM) | 16 µg/mL (≈ 26.8 µM) | 16 µg/mL (≈ 26.8 µM) | 16 µg/mL (≈ 26.8 µM) | 8 µg/mL (≈ 13.4 µM) | 8 µg/mL (≈ 13.4 µM) | 8 µg/mL (≈ 13.4 µM) | 16 µg/mL (≈ 26.8 µM) | 8 µg/mL (≈ 13.4 µM) | MIC ([4]; E. coli ATCCBAA-2523, read-out: MIC): 0.25 µg/mL (≈ 0.419 µM); MIC (P. aeruginosa ATCC 35151; P. aeruginosa ATCC35151, read-out: MIC): 0.0625 µg/mL (≈ 0.105 µM); MIC (E. coli ATCC 25922; E. coli ATCC25922, read-out: MIC): 0.25 µg/mL (≈ 0.419 µM)
CC1(C)[C@H](NC(=O)/C(=N\OCCOc2ccc3c(c2)CCN(C(=N)NCCCN)C3)c2csc(N)n2)C(=O)N1OS(=O)(=O)O [Compound 4] | 8 µg/mL (≈ 12.2 µM) | 1 µg/mL (≈ 1.53 µM) | 0.5 µg/mL (≈ 0.765 µM) | ≤ 0.125 µg/mL | 1 µg/mL (≈ 1.53 µM) | 0.5 µg/mL (≈ 0.765 µM) | 0.5 µg/mL (≈ 0.765 µM) | 8 µg/mL (≈ 12.2 µM) | 8 µg/mL (≈ 12.2 µM) | 4 µg/mL (≈ 6.12 µM) | 4 µg/mL (≈ 6.12 µM) | 2 µg/mL (≈ 3.06 µM) | 4 µg/mL (≈ 6.12 µM) | 4 µg/mL (≈ 6.12 µM) | 4 µg/mL (≈ 6.12 µM) | 4 µg/mL (≈ 6.12 µM) | 4 µg/mL (≈ 6.12 µM) | 8 µg/mL (≈ 12.2 µM) | MIC [4]: ≤ 0.125 µg/mL; MIC [17]: 0.25 µg/mL (≈ 0.382 µM); MIC (P. aeruginosa ATCC 35151; ATCC35151): ≤ 0.125 µg/mL; MIC (E. coli ATCC 25922; ATCC25922): ≤ 0.125 µg/mL
CC1(C)[C@H](NC(=O)/C(=N\OCCOc2ccc3c(c2)CC[N+](C)(CCCN)C3)c2csc(N)n2)C(=O)N1OS(=O)(=O)[O-] (stereo partly shown) [Compound 5] | – | – | – | – | – | – | 1 µg/mL (≈ 1.6 µM) | 16 µg/mL (≈ 25.6 µM) | 16 µg/mL (≈ 25.6 µM) | 8 µg/mL (≈ 12.8 µM) | 8 µg/mL (≈ 12.8 µM) | 2 µg/mL (≈ 3.2 µM) | 16 µg/mL (≈ 25.6 µM) | 16 µg/mL (≈ 25.6 µM) | 16 µg/mL (≈ 25.6 µM) | 16 µg/mL (≈ 25.6 µM) | 16 µg/mL (≈ 25.6 µM) | 16 µg/mL (≈ 25.6 µM) | –
